In brackets after ≈: the same amount, converted by molar mass. Read-outs that look alike come from different tables or passages of the source.
Legend:
[1] = tested on: Campylobacter jejuni; assay: MIC by agar dilution (NCCLS M7-A4), 288 enteropathogenic isolates, gemifloxacin and 15 other antimicrobials; conditions: for MIC: Campylobacter jejuni
[2] = tested on: Staphylococcus aureus; assay: MIC by agar macrodilution (NCCLS), 373 Gram positive isolates, Athens 1998; format: cell-based; conditions: Methicillin-susceptible Staphylococcus aureus (n = 85); for MIC90: read-out: MIC90
[3] = tested on: Shigella spp.; assay: MIC by agar dilution (NCCLS M7-A4), 288 enteropathogenic isolates, eight quinolones; format: cell-based; conditions: Shigella spp. (n = 21)
[4] = tested on: Hafnia alvei; assay: as above; format: cell-based; conditions: Hafnia alvei (n = 32)
[5] = tested on: Campylobacter jejuni; assay: MIC by agar dilution (NCCLS M7-A4), 5% sheep blood, microaerophilic 48 h; format: cell-based; conditions: Campylobacter jejuni (n=91)
[6] = tested on: Staphylococcus aureus; assay: MIC by agar dilution (NCCLS), 411 isolates Buenos Aires 1998-99; format: cell-based; conditions: for MIC90: Staphylococcus aureus
[7] = tested on: Aeromonas spp.; assay: MIC by agar dilution (NCCLS M7-A4), 288 enteropathogenic isolates, eight quinolones; format: cell-based; conditions: Aeromonas spp. (n = 16)
[8] = tested on: Serratia marcescens; assay: MIC by NCCLS broth microdilution, 1100 Japanese clinical isolates 1997-1998; format: cell-based
[9] = tested on: Enterococcus faecium; assay: as above; format: cell-based; conditions: for MIC: Enterococcus faecium
[10] = tested on: Staphylococcus aureus; assay: as above; format: cell-based; conditions: for MIC: Staphylococcus aureus quinolone resistant
[11] = tested on: Streptococcus pyogenes; assay: as above; format: cell-based; conditions: Streptococcus pyogenes (n=51)
[12] = tested on: Enterococcus faecalis; assay: MIC by agar macrodilution (NCCLS), 373 Gram positive isolates, Athens 1998; format: cell-based
[13] = S. aureus, Methicillin resistant (n = 14)
[14] = Staphylococcus aureus oxacillin susceptible (n=41)
[15] = Staphylococcus aureus, Staphylococcus aureus oxacillin resistant (n=57)

Q: Which results are given for `CC1COc2c(N3CCN(C)CC3)c(F)cc3c(=O)c(C(=O)O)cn1c23` (centres unmarked) [Ofloxacin, ofloxacin]?
A: MIC ([1]; read-out: MIC (mg/L) 50%): 16 mg/L (≈ 44.3 µM); MIC ([1]; read-out: MIC (mg/L) 90%): 32 mg/L (≈ 88.6 µM); MIC Range [2]: 0.25 to 32 µg/mL; MIC90 [2]: 1 µg/mL (≈ 2.77 µM); % Susceptible [3]: 100%; MIC50 [3]: 0.03 µg/mL (≈ 0.083 µM); MIC90 [3]: 0.06 µg/mL (≈ 0.166 µM); MIC Range [3]: ≤0.015 to 0.06 µg/mL; % Susceptible [4]: 100%; MIC50 [4]: 0.03 µg/mL (≈ 0.083 µM); MIC90 [4]: 0.03 µg/mL (≈ 0.083 µM); MIC Range [4]: 0.03 µg/mL (≈ 0.083 µM); % Susceptible [5]: 31.86%; MIC50 [5]: 16 µg/mL (≈ 44.3 µM); MIC90 [5]: 32 µg/mL (≈ 88.6 µM); Resistance (%) [6, 13]: 100%; Resistance (%) ([6]; S. aureus, Methicillin susceptible (n = 66)): 0%; MIC90 [6, 13]: 16 µg/mL (≈ 44.3 µM); MIC90 ([6]; Staphylococcus aureus (n = 80)): 8 µg/mL (≈ 22.1 µM); % Susceptible [7]: 100%; MIC50 [7]: ≤ 0.015 µg/mL; MIC90 [7]: 0.03 µg/mL (≈ 0.083 µM); MIC Range [7]: ≤0.015 to 0.12 µg/mL

Q: Which results are given for `NC1CCN(c2nc3c(cc2F)c(=O)c(C(=O)O)cn3-c2ccc(F)cc2F)C1` (centres unmarked) [Tosufloxacin, tosufloxacin]?
A: MIC50 ([8]; Serratia marcescens): 0.125 µg/mL (≈ 0.309 µM); MIC90 ([8]; Serratia marcescens (n=30)): 1 µg/mL (≈ 2.47 µM); MIC50 ([9]; Enterococcus faecium (n=39)): > 16 µg/mL; MIC90 ([9]; Enterococcus faecium (n=39)): > 16 µg/mL; MIC ([9]; Enterococcus faecium (vanA) vancomycin resistant, strain TMS1): > 16 µg/mL; MIC ([9]; Enterococcus faecium (vanA) vancomycin resistant, strain TMS2): 2 µg/mL (≈ 4.95 µM); MIC ([9]; Enterococcus faecium (vanA) vancomycin resistant, strain TMS3): > 16 µg/mL; MIC ([9]; Enterococcus faecium (vanA) vancomycin resistant, strain TMS4): > 16 µg/mL; MIC ([9]; Enterococcus faecium (vanA) vancomycin resistant, strain TMS5): 4 µg/mL (≈ 9.89 µM); MIC ([9]; Enterococcus laecium (van B) vancomycin resistant, strain TMS6): > 16 µg/mL; MIC ([9]; Enterococcus laecium (van B) vancomycin resistant, strain TMS7): > 16 µg/mL; MIC90 [10, 14]: 0.125 µg/mL (≈ 0.309 µM); MIC Range [10, 14]: 0.016 to 1 µg/mL; MIC50 [10, 15]: 4 µg/mL (≈ 9.89 µM); MIC90 [10, 15]: > 16 µg/mL; MIC50 ([10]; Staphylococcus aureus, Staphylococcus aureus oxacillin susceptible (n=41)): 0.063 µg/mL (≈ 0.156 µM); MIC ([10]; Staphylococcus aureus, strain TMS1* (spontaneous mutant resistant to ciprofloxacin)): 0.25 µg/mL (≈ 0.618 µM); MIC ([10]; Staphylococcus aureus, strain TMS3, read-out: MIC): > 16 µg/mL; MIC ([10]; Staphylococcus aureus, strain TMS4, read-out: MIC): 4 µg/mL (≈ 9.89 µM); MIC ([10]; Staphylococcus aureus, strain TMS5, read-out: MIC): 4 µg/mL (≈ 9.89 µM); MIC ([10]; Staphylococcus aureus, strain TMS6, read-out: MIC): 2 µg/mL (≈ 4.95 µM); MIC90 [11]: 1 µg/mL (≈ 2.47 µM); MIC Range [11]: 0.063 to 1 µg/mL; MIC50 ([11]; read-out: MIC50): 0.25 µg/mL (≈ 0.618 µM)

Q: What does the source list for `Cc1c(F)c(N2CCNC(C)C2)cc2c1c(=O)c(C(=O)O)cn2C1CC1` (centres unmarked) [Grepafloxacin, grepafloxacin]?
A: MIC (mg/L) Range ([1]; Campylobacter jejuni N= 91): 0.03 to 128 mg/L; MIC ([1]; read-out: MIC (mg/L) 50%): 32 mg/L (≈ 89 µM); MIC ([1]; read-out: MIC (mg/L) 90%): 64 mg/L (≈ 178 µM); MIC Range [2]: 0.06 to 32 µg/mL; MIC50 ([2]; read-out: MIC50): 0.125 µg/mL (≈ 0.348 µM); MIC90 [2]: 0.25 µg/mL (≈ 0.696 µM); % Susceptible [3]: 100%; MIC50 [3]: ≤ 0.015 µg/mL; MIC90 [3]: 0.03 µg/mL (≈ 0.0835 µM); MIC Range [3]: ≤0.015 to 0.03 µg/mL; % Susceptible [4]: 100%; MIC50 [4]: 0.03 µg/mL (≈ 0.0835 µM); MIC90 [4]: 0.06 µg/mL (≈ 0.167 µM); MIC Range [4]: ≤0.015 to 0.06 µg/mL; % Susceptible [5]: 31.86%; MIC50 [5]: 32 µg/mL (≈ 89 µM); MIC90 [5]: 64 µg/mL (≈ 178 µM); MIC Range [5]: 0.03 to 128 µg/mL; MIC distribution (µg/ml) 0.03 [12]: 0; MIC distribution (µg/ml) 0.06 [12]: 0; MIC distribution (µg/ml) 0.125 [12]: 0; MIC distribution (µg/ml) 0.25 [12]: 2; MIC distribution (µg/ml) 1 [12]: 22; MIC distribution (µg/ml) 2 [12]: 21; MIC distribution (µg/ml) 4 [12]: 6; MIC distribution (µg/ml) 8 [12]: 4; MIC distribution (µg/ml) 16 [12]: 2; MIC distribution (µg/ml) ≤0.015 [12]: 0; MIC distribution (µg/ml) ≥32 [12]: 19; MIC50 ([12]; Enterococcus faecalis, n = 81 isolates, read-out: MIC50): 2 µg/mL (≈ 5.56 µM); MIC90 ([12]; Enterococcus faecalis, n = 81 isolates, read-out: MIC90): ≥ 32 µg/mL; MIC distribution (µg/ml) 0.5 ([12]; number of isolates at MIC 0.5 µg/ml, n = 81): 5; % Susceptible [7]: 100%; MIC50 [7]: 0.03 µg/mL (≈ 0.0835 µM); MIC90 [7]: 0.06 µg/mL (≈ 0.167 µM); MIC Range [7]: ≤0.015 to 0.12 µg/mL
